A short description of data set [1]: Cytotoxicity (MTS assay), 184R-A cells. Type of data set: cell-based. The settings on record: human, 184R-A cells (S282T), 184R-A (S282T), N = 3. The protocol: Cells were plated and treated with inhibitors as described above.
(In general: Tetrazolium dyes change colour on reduction, which living cells bring about.)

For the next data set, the target named is CYP2C8 (Homo sapiens, UniProt P10632). As to the kind of experiment: Incubation with human recombinant CYP450 supersomes, 2C8. Type of data set: in vitro ADME. The conditions noted are these: CYP450 2C8 supersomes, 60 min, 10 μM, average of two experiments. The protocol:
Supersomes—Incubations were conducted in a final volume of 0.1 mL reaction buffer (50-100 mM potassium phosphate, pH 7.4 or 100 mM Tris-HCL, pH 7.4) according to protocol provided with each CYP450 supersome. Each reaction contained […] of CYP450 supersome, 1.3 mM NADP^+, 3.3 mM glucose-6-phosphate, 0.4 U/mL glucose-6-phosphate dehydrogenase, 3.3 mM MgCl2 and 10 μM Compound 1. Following incubation for 60 min at 37° C., 100 μL of stop solution (acetonitrile:methanol; 1:1) was added and samples centrifuged for 10 min at 10,000×g. The supernatant was then dried and reconstituted in 10 mM potassium phosphate, pH 5, further transferred to an HPLC glass vial and analyzed by HPLC-UV (described above).

The subject of data set [2] is HCV genotype 1b replicon (GS4.1 cells). Briefly: HCV replicon assay (NS4A ELISA). Type of data set: cell-based, hepatitis C virus. The settings on record: Hepatitis C virus, 72 h, 3 days. The protocol:
The biological activity of Compound 1, diastereomer 1 and diastereomer 2 was measured by monitoring expression of the NS4A protein by enzyme-linked immunosorbent assay (ELISA) and by luciferase assay as described below:
The HCV replicon assay measures the ability of a test compound to inhibit HCV replication in cell culture after 3 days of treatment in a human hepatoma cell line (Huh-7) bearing the HCV genotype 1b replicon (GS4.1 cells). The inhibition of HCV replication was measured by quantification of viral NS4A protein using an enzyme-linked immunosorbent assay (ELISA). […] Additionally, the replicon contains the neomycin phosphotransferase gene under the control of the HCV promoter (Source: Dr. Christoph Seeger, Fox Chase Cancer Center, Philadelphia, Pa.).
The NS4A ELISA assay is summarized as follows. Ninety-six-well tissue culture plates were seeded with GS4.1 cells. Antiviral compound solutions were made up freshly in medium as 2×-concentrated stocks. Eight additional 3-fold drug dilutions were prepared from these stocks in medium for a total of 9 dilutions. At least four hours after GS4.1 cells were seeded, drug treatment was initiated by adding one volume of each 2× concentrated drug dilution to one volume of cells/medium in the tissue culture plates. Cells were then incubated for 3 days at 37° C./5% CO2.
The media/compound was then removed from the plates and cells were fixed with acetone:methanol, washed three times with a wash solution, and then blocked for 1 hour with 10% fetal bovine serum in a balanced salt solution. Cells were washed three times and incubated with an anti-hepatitis C NS4A monoclonal antibody (Virogen Corp.) for 2 hours at 37° C. […] The reaction was stopped with diluted sulfuric acid (Mallinckrodt Chemicals) and absorbance measured on a Victor^3V 1420 multilabel counter (Perkin Elmer). EC50 values were calculated from dose response curves from the resulting best-fit equations determined by Microsoft Excel and XLfit 4.1 software.
A general note: Replicon systems follow genome replication, usually without infectious particles.

For data set [3], the system named is primary hepatocytes (human, monkey, rat). Briefly: Primary hepatocytes, statements pooled over human, monkey and rat. Type of data set: in vitro ADME. The protocol:
Primary hepatocytes: Freshly isolated cells from animal and human liver were obtained in suspension on ice. Cells were pelleted by centrifugation at 70-75×g (rat) or 95-90×g (monkey and human) and resuspended at 0.8 million cells per mL of platting medium (William's E supplemented with 5% FBS, 0.5% penicillin-streptomycin, 1% L-glutamine, 4 μg/mL insulin and 1 μM dexamethasone). Multi-well collagen I-coated plates (rat tail collagen type I; 12- or 6-well) were then seeded by addition of 1 mL (12-well; 0.8 million cells/well) or 2 mL (6-well; 1.6 million cells/well) of cell suspension. […]
Cellular extracts were prepared by centrifugation at 16,000 RCF using an Eppendorf microcentrifuge (Eppendorf, Model 5415D) for 10 min to remove cellular debris. An aliquot of 5-10 μL of the supernatant was added to 5 mL of EcoLite™ (MP, Irvine, Calif.) liquid scintillation cocktail and radioactivity measured by liquid scintillation counting (LSC) using a Beckman Coulter LS6500 multipurpose liquid scintillation counter (Beckman Instruments, Fullerton, Calif.). […] Prior to HPLC analysis (described below), radioactivity of the concentrated extracts was measured by LSC using 5 μL aliquots. Extraction recovery was then determined by comparing total radioactivity in extracts before and after drying. […] Samples with poor recovery (<85%) were re-analyzed when possible. […]

Structures are written as SMILES. Bounds are passed on as bounds.

Sequence of CYP2C8 (P10632 whole entry): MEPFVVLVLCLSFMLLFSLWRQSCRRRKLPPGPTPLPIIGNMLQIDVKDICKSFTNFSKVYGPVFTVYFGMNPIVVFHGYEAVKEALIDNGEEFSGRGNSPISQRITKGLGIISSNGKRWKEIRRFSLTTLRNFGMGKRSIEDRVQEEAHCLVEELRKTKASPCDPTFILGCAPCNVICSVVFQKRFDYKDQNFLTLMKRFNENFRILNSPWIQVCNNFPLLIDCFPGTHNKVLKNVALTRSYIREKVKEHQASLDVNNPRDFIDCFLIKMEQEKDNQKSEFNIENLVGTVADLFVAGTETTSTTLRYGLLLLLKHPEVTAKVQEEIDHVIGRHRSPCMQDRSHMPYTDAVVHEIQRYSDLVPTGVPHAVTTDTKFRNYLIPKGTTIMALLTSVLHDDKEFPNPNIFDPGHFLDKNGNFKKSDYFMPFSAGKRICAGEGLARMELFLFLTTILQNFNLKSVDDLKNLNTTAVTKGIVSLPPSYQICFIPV

For orientation: CC50 means the concentration that lowers cell viability or growth by half. By EC50 is commonly meant the midpoint of the concentration-response curve. In the case of `CC(C)(CO)C(=O)SCCOP(=O)(NCc1ccccc1)OC[C@H]1O[C@@H](n2cnc3c(=O)[nH]c(N)nc32)[C@](C)(O)[C@@H]1O` (mixture of isomers) [Compound 1, 3-hydroxy-2,2-dimethyl-thiopropionic acid S-(2-{[(2R,3R,4R,5R)-5-(2-amino-6-oxo-1,6-dihydro-purin-9-yl)-3,4-dihydroxy-4-methyl-tetrahydro-furan-2-ylmethoxy]-benzylamino-phosphoryloxy}-ethyl) ester], the CC50 at 3 days in data set [1] is greater than 100000 nM. Also, the “% Residual Compound 1” value at CYP2C8 stood at 105%. The same molecule gave an EC50 in data set [2] of 379 ± 83 nM. With `C[C@@]1(O)[C@H](O)[C@@H](CO)O[C@H]1n1cnc2c(=O)[nH]c(N)nc21` [2′-C-methyl guanosine, 9-(2-C-methyl-β-D-ribofuranosyl)guanine, reference compound], the “metabolites in the incubation medium following incubation with [^14C]-2′-C-methyl guanosine” value in data set [3] (primary hepatocytes, 10 μM or 1 μM) is “No metabolites were observed”. In the case of `C[C@@]1(O)[C@H](O)[C@@H](COP(=O)(O)OP(=O)(O)OP(=O)(O)O)O[C@H]1n1cnc2c(=O)[nH]c(N)nc21` [Compound 7, [(2R)-2-methyl-β-D-ribofuranosyl]guanine 5′-triphosphate], the “% of the total intracellular radioactivity” value in data set [3] (extracts of primary hepatocytes, all three species, 4-24 hours, [^14C]-Compound 1) is reported as 60-81%.
